Laboratory results reported in ChEMBL document CHEMBL1157844, “QSAR study of flavonoids and biflavonoids as influenza H1N1 virus neuraminidase inhibitors” (Eur J Med Chem, 2010).

Columns and labels:
[1] = target: Neuraminidase (Influenza A virus (A/Puerto Rico/8/1934(H1N1))) (UniProt P03468); experiment: (§1) Inhibition of Influenza A PR/8/34 H1N1 virus neuraminidase activity by MUN-ANA substrate based fluorimetric assay; design: unit not given here
[2] = target: Neuraminidase (Influenza A virus (A/Puerto Rico/8/1934(H1N1)), UniProt P03468); experiment: as §1
Sequence of Neuraminidase (Influenza A virus (A/Puerto Rico/8/1934(H1N1)), UniProt P03468) (P03468 whole entry): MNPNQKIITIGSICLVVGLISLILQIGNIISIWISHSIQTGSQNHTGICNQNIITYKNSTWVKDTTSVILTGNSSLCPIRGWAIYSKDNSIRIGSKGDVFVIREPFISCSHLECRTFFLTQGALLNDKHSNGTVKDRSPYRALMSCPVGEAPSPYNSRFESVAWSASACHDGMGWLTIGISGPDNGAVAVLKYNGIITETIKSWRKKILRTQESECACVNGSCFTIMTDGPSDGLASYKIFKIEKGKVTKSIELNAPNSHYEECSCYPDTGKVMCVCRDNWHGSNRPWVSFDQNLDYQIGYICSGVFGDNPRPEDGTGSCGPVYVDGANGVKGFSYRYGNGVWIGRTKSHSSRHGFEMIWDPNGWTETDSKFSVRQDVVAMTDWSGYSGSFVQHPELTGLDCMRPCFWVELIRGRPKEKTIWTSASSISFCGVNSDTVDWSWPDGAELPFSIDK

Sequence of Neuraminidase (Influenza A virus (A/Puerto Rico/8/1934(H1N1))) (P03468 whole entry): as above

Compound	logIC50 [1]	IC50 [2]
COc1c(O)cc2oc(-c3ccc(O)cc3)cc(=O)c2c1O [HISPIDULIN]	1.14	46.3 µM
O=c1cc(-c2ccc(Oc3c(O)cc4oc(-c5ccc(O)cc5)cc(=O)c4c3O)cc2)oc2cc(O)cc(O)c12 [HINOKIFLAVONE]	1.62	77.6 µM
COc1cc(O)c2c(=O)c(O)c(-c3ccc(O)cc3)oc2c1 [RHAMNOCITRIN]	1.19	51.5 µM
O=c1c(-c2ccc(O)cc2)coc2cc(O)ccc12 [DAIDZEIN]	0.975	37.1 µM
O=C(Oc1cc(O)c2c(c1)OC(c1cc(O)c(O)c(O)c1)CC2)c1cc(O)c(O)c(O)c1 (stereo unspecified)	1.2	35.5 µM
O=C1/C(=C/c2ccc(O)c(O)c2)Oc2cc(O)ccc21 [SULFURETIN]	0.903	29.6 µM
O=c1c(O[C@H]2O[C@@H](CO)[C@H](O)[C@@H](O)[C@@H]2O[C@@H]2OC[C@@H](O)[C@H](O)[C@H]2O)c(-c2ccc(O)cc2)oc2cc(O)cc(O)c12 (stereo in doubt)	1.39	42.2 µM
C[C@@H]1O[C@@H](OC[C@H]2O[C@@H](Oc3c(-c4ccc(O)c(O)c4)oc4cc(O)cc(O)c4c3=O)[C@H](O)[C@@H](O)[C@@H]2O)[C@H](O)[C@H](O)[C@H]1O [RUTIN]	1.49	51 µM
O=c1cc(-c2ccc(O)cc2)oc2c([C@@H]3O[C@H](CO)[C@@H](O)[C@H](O)[C@H]3O)c(O)cc(O)c12 [VITEXIN]	1.32	48.2 µM
COc1cc(O)c2c(=O)cc(-c3ccc(OC)c(-c4c(O)cc(O)c5c(=O)cc(-c6ccc(O)cc6)oc45)c3)oc2c1 [GINKGETIN]	1.74	97.1 µM
O=c1c(-c2ccc(O)cc2)coc2cc(O)cc(O)c12 [GENISTEIN]	1.32	77.1 µM
O=c1cc(-c2ccc(O)c(O)c2)oc2cc(O[C@@H]3O[C@H](CO)[C@@H](O)[C@H](O)[C@H]3O)cc(O)c12 [GALUTEOLIN]	1.33	47.4 µM
COc1c(O)cc(O)c2c(=O)cc(-c3ccc(O)cc3)oc12 [4'-HYDROXYWOGONIN]	1.12	43.8 µM
O=c1cc(-c2ccc(O)c(O)c2)oc2cc(O)cc(O)c12 [LUTEOLIN]	0.984	33.7 µM
COc1ccc(-c2cc(=O)c3c(O)c(Oc4ccc(-c5cc(=O)c6c(O)cc(OC)cc6o5)cc4)c(O[C@]4(C(=O)O)C[C@H](O)[C@@H](NC(C)=O)[C@H]([C@@H](O)[C@@H](O)CO)O4)cc3o2)cc1	1.28	22.3 µM
O=c1cc(-c2ccc(O)cc2)oc2cc(O)cc(O)c12 [APIGENIN]	0.932	31.6 µM
O=c1c(O)c(-c2ccc(O)c(O)c2)oc2cc(O)cc(O)c12 [QUERCETIN]	1.25	58.4 µM
O=c1cc(-c2ccc(O)cc2)oc2cc(O)c(O)c(O)c12 [SCUTELLAREIN]	1.16	50.6 µM
O=c1c(O)c(-c2ccc(O)cc2)oc2cc(O)cc(O)c12 [KAEMPFEROL]	1.23	58.6 µM
O=c1cc(-c2ccccc2)oc2cc(O)cc(O)c12 [CHRYSIN]	1.06	45.7 µM
O=c1c(O)c(-c2cc(O)c(O)c(O)c2)oc2cc(O)cc(O)c12 [MYRICETIN]	1.42	82.6 µM
O=C1/C(=C\c2ccccc2)Oc2cc(O)ccc21	1.23	72 µM
O=C1/C(=C\c2ccc(O)cc2)Oc2cc(O)ccc21	0.748	22 µM
